What was measured:
[1] = tested on: HCT116 human colon carcinoma xenograft; test: HCT116 xenograft model in nude mice (hypoxic tumor); assay type: in vivo; conditions: for efficacy at slowing tumor growth in HCT116 (high hypoxia) versus 786O (low hypoxia) tumors: comparison of HCT116 and 786O xenografts in nude mice
Procedure: Human tumor cell lines HCT116 (ATCC #CRL-247; Schroy P C, et al. Cancer 76: 201-209, 1995) and 786-O (ATCC #CRL-1932; Williams R D, et al. In Vitro 12: 623-627, 1976), were obtained from the American Type Culture Collection (Manassus, Va., USA) were cultured using routine methods until a sufficient number of cells were obtained for implantation. Studies were conducted on animals between 7 and 12 weeks of age at implantation. To implant HCT116 tumor cells into nude mice, the cells were trypsinized, washed in PBS and resuspended at a concentration of 75×10^6 cells/ml in McCoy's modified medium with 50% of BD Matrigel® Basement Membrane Matrix (BD Biosciences®, Bedford, Mass., USA). To implant 786-O tumor cells into nude mice, the cells were trypsinized as above, washed in PBS and resuspended at a concentration of 75×10^6 cells/ml in RPMI 1640 medium with 50% of BD Matrigel® Basement Membrane Matrix. Using a 27 gauge needle and 1 cc syringe, 0.1 ml of the cell suspension was injected into the corpus adiposum of nude mice. […] The location permits palpation and measurement of the tumors using external calipers. Tumor volumes (V) were calculated by caliper measurement of the width (W), length (L) and thickness (T) of tumors using the following formula: V=0.5236×(L×W×T).

JAK2V617F = JAK2V617F (Homo sapiens, UniProt O60674, V617F); conditions: cited from earlier work
[2] = tested on: locally advanced or metastatic NSCLC; conditions: erlotinib 150 mg orally once daily; cited from earlier work
[3] = tested on: locally advanced or metastatic NSCLC; conditions: maintenance, erlotinib 150 mg once daily; difference not statistically significant; cited from earlier work
[4] = tested on: locally advanced, unresectable or metastatic pancreatic cancer; conditions: 100 mg cohort, arms: gemcitabine plus erlotinib vs gemcitabine alone, cited from earlier work
solid tumors = conditions: once-weekly dosing, evaluable patients; cited from earlier work
[5] = tested on: advanced relapsed/refractory NSCLC; conditions: cited from earlier work
[6] = tested on: gastrointestinal stromal tumor (GIST); conditions: cited from earlier work
[7] = tested on: GIST following progression on or intolerance to imatinib; conditions: 50 mg once daily Schedule 4/2; 5 of 55 patients; cited from earlier work
treatment-naïve RCC = conditions: cited from earlier work
[8] = tested on: 786-O human renal carcinoma xenograft; test: 786-O xenograft model in nude mice (low hypoxia tumor); assay type: in vivo
Procedure: Human tumor cell lines HCT116 (ATCC #CRL-247; Schroy P C, et al. Cancer 76: 201-209, 1995) and 786-O (ATCC #CRL-1932; Williams R D, et al. In Vitro 12: 623-627, 1976), were obtained from the American Type Culture Collection (Manassus, Va., USA) were cultured using routine methods until a sufficient number of cells were obtained for implantation. Studies were conducted on animals between 7 and 12 weeks of age at implantation. To implant HCT116 tumor cells into nude mice, the cells were trypsinized, washed in PBS and resuspended at a concentration of 75×10^6 cells/ml in McCoy's modified medium with 50% of BD Matrigel® Basement Membrane Matrix (BD Biosciences®, Bedford, Mass., USA). To implant 786-O tumor cells into nude mice, the cells were trypsinized as above, washed in PBS and resuspended at a concentration of 75×10^6 cells/ml in RPMI 1640 medium with 50% of BD Matrigel® Basement Membrane Matrix. Using a 27 gauge needle and 1 cc syringe, 0.1 ml of the cell suspension was injected into the corpus adiposum of nude mice. The corpus adiposum is a fat body located in the ventral abdominal vicera in the right quadrant of the abdomen at the juncture of the os coxae (pelvic bone) and the os femoris (femur). The location permits palpation and measurement of the tumors using external calipers. Tumor volumes (V) were calculated by caliper measurement of the width (W), length (L) and thickness (T) of tumors using the following formula: V=0.5236×(L×W×T). Animals were randomized into treatment groups so that the average tumor volumes of each group were similar at the start of dosing.
A tumor model in which the tumors have relatively high and low levels of LDH5, indicating high and low levels of hypoxia, using human tumor cell lines HCT116 and 786-O was established as set forth in the previous example.
As above, HCT116 and 786-O cells were cultured and implanted into nude mice using the methods in the previous example. Tumor growth was measured using calipers. Prior to treatment with the various agents, tumors were permitted to develop in vivo until they reached approximately 150 mm^3 in volume, which typically required 2-3 weeks following implantation. Animals were randomized into treatment groups so that the average tumor volumes of each group were similar at the start of dosing.
Tumor volume was monitored throughout the course of the study, until up to about 40 days from the date of tumor implantation. The exact number of days of the study depended on a number of factors including, for example, the number of days from implantation for the tumors to reach the desired volume.

[9] = tested on: metastatic colorectal cancer; conditions: bevacizumab plus 5-FU/Leucovorin vs 5-FU/Leucovorin alone; not statistically significant; cited from earlier work
[10] = tested on: metastatic colorectal cancer; conditions: arms: bevacizumab plus 5-FU/Leucovorin vs IFL regimen alone; cited from earlier work
[11] = tested on: metastatic pancreatic cancer; conditions: cited from earlier work
renal cancer = conditions: cited from earlier work
[12] = tested on: metastatic colorectal cancer; conditions: bevacizumab and chemotherapy vs bevacizumab and chemotherapy alone, cited from earlier work; for median PFS: oxaliplatin stratum, arms: panitumumab
[13] = tested on: EGFR-expressing, metastatic carcinoma of the colon or rectum (mCRC); conditions: panitumumab 6 mg/kg every two weeks plus best supportive care; cited from earlier work

JAK2V617F, sequence (O60674 whole entry V617F): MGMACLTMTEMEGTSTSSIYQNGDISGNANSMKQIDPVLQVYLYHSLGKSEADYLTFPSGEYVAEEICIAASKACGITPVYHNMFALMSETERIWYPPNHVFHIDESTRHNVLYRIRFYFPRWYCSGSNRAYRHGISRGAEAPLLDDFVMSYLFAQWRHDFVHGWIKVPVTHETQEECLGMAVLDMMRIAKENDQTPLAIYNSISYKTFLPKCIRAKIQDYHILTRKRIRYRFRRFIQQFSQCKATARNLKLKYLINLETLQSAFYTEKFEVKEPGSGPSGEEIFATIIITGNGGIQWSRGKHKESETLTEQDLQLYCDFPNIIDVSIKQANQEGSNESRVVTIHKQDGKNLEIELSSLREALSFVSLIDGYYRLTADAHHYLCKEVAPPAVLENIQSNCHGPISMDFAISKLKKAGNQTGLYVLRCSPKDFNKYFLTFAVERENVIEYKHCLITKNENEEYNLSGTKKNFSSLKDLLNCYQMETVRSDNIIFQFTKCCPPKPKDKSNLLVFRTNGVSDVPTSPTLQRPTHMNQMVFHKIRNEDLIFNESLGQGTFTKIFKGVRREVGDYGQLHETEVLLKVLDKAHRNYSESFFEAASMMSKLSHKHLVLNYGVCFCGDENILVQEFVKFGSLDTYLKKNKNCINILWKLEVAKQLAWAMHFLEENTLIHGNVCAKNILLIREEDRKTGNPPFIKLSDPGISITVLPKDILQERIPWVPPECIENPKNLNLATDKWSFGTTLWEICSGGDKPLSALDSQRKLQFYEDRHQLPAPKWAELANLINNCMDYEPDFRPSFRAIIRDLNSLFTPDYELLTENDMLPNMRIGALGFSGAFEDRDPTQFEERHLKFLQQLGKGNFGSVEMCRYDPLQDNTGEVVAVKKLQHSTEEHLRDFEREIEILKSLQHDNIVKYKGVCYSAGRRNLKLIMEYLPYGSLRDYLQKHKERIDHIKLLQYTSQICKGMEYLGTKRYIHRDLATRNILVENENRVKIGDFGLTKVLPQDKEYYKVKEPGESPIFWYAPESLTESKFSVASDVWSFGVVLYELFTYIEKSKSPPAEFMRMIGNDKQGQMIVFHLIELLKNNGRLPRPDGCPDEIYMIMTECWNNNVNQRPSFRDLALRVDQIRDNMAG

Molecule: C#Cc1cccc(Nc2ncnc3cc(OCCOC)c(OCCOC)cc23)c1 [erlotinib]
- efficacy at slowing tumor growth in HCT116 (high hypoxia) versus 786O (low hypoxia) tumors [1]: more effective at slowing tumor growth in tumors with high levels of hypoxia
- tumor growth rate versus control ([1]; erlotinib 1x/week P.O., p=0.0224): reduced the growth rate of the tumor as compared to control
- JAK2V617F activity (JAK2V617F): potent inhibitor of JAK2V617F activity
- median response duration [2]: 34.3 weeks
- progression free survival [2]: 9.9 weeks
- survival [2]: 6.7 months
- tumor response [2]: 8.9%
- overall survival [3]: 12 weeks
- progression free survival ([4]; p=0.006): 3.8 months
- survival ([4]; p=0.028): 6.4 months

Molecule: CC(C)c1cc(-c2nnc(O)n2-c2ccc3c(ccn3C)c2)c(O)cc1O [ganetespib]
- efficacy at slowing tumor growth in HCT116 (high hypoxia) versus 786O (low hypoxia) tumors [1]: not found to work better in the tumors with a higher level of hypoxia
- disease control (solid tumors): more than half of all evaluable patients experienced disease control
- disease control rate ([5]; broad population, single agent): 54%
- patients with durable, objective responses ([5]; patients with ALK rearrangement, four of eight): 50%
- patients who received ganetespib for 16 weeks or more ([5]; patients with ALK rearrangement, seven of eight): 88%
- patients with tumor shrinkage ([5]; patients with ALK rearrangement, six of eight): 75%

Molecule: CCN(CC)CCNC(=O)c1c(C)[nH]c(/C=C2\C(=O)Nc3ccc(F)cc32)c1C [sunitinib]
- efficacy at slowing tumor growth in HCT116 (high hypoxia) versus 786O (low hypoxia) tumors [1]: not found to work better in the tumors with a higher level of hypoxia
- median OS ([6]; final analysis, sunitinib arm): 72.7 weeks
- time to tumor progression (TTP) versus placebo ([6]; interim analysis, 50 mg once daily Schedule 4/2): statistically significant advantage for sunitinib over placebo in TTP
- OS HR ([6]; sunitinib vs placebo, final analysis): 0.876
- PR rate [7]: 9.1%
- PFS versus IFN-α (treatment-naïve RCC; 50 mg sunitinib once daily Schedule 4/2): statistically significant advantage for sunitinib over IFN-α in the endpoint of PFS
- median OS (treatment-naïve RCC; final analysis, arms: sunitinib vs IFN-α): 114.6 weeks
- ORR versus IFN-α arm (treatment-naïve RCC; in vivo): higher

Molecule: bevacizumab: recombinant humanized monoclonal IgG1 antibody that binds to and inhibits human vascular endothelial growth factor (VEGF)
- tumor growth versus control ([1]; bevacizumab 4 mg/kg i.p., p=0.0424): reduced the growth of the tumor as compared to control
- efficacy at slowing tumor growth in HCT116 (high hypoxia) versus 786O (low hypoxia) tumors [1]: more effective at slowing tumor growth in tumors with high levels of hypoxia
- tumor growth versus control ([1]; lower dose of bevacizumab (1 mg/kg) i.p., p=0.1274): small trend to decreased tumor growth
- tumor burden versus control ([8]; higher dose of bevacizumab (4 mg/kg) i.p., p=0.011): greatest tumor burden
- tumor burden versus control ([8]; low dose bevacizumab (1 mg/kg) i.p., p=0.437): no significant difference in tumor burden
- improvement in median survival [9]: 29%
- progression-free survival [10]: 8.7 months
- progression free survival HR ([11]; bevacizumab vs placebo, both with gemcitabine and erlotinib, P=0.0002): 0.73
- median overall survival ([11]; bevacizumab, gemcitabine and erlotinib arm (306 patients)): 7.1 months
- patients with decreased tumor size (renal cancer; arms: bevacizumab and interferon-alpha vs interferon-alpha alone): 30%
- increase in progression-free survival time (renal cancer; interferon-alpha with bevacizumab vs interferon-alpha alone): about 5 months
- median PFS [12]: 10.5 months

Molecule: panitumumab: recombinant, human IgG2 kappa monoclonal antibody that binds to the human EGFR
- efficacy at slowing tumor growth in HCT116 (high hypoxia) versus 786O (low hypoxia) tumors [1]: not found to work better in the tumors with a higher level of hypoxia
- PFS [13]: 96 days
- median PFS [12]: 8.8 months
- PFS hazard ratio ([12]; panitumumab, p-value=0.0024): 1.44
